Biological target: T1, PRMT5 (Homo sapiens, UniProt O14744)
T1 construct: we performed a global quantitative proteomic analysis of MCF7 cells using mass spectrometry; endogenous in cells; host or cells: MCF7
Assay: Global proteomics of MCF7 cells, PRMT5 level
Format: cell-based
Settings: 25 nM, 4 h, versus DMSO
Procedure: Sample preparation for global proteomics analysis. Sample preparation is similar to the previous report (Ma et al. “Strategy Based on Deglycosylation, Multiprotease, and Hydrophilic Interaction Chromatography for Large-Scale Profiling of Protein Methylation” Anal. Chem. 2017, 89 (23), 12909-12917). Briefly, treated MCF7 cells were harvested by washing with PBS buffer (Gibco, pH 7.4) and lysed in RIPA buffer supplemented with protease inhibitors for 20 min, then protein concentration was determined using a BCA Protein Assay Kit (Thermo Pierce, Rockford, IL) per manufacturer instructions. […] The concentrations of the peptide mixture were measured by peptide assay (Thermo Fisher Scientific). […]
LC-MS/MS data acquisition. Samples were analyzed on an Orbitrap Fusion Lumos Tribrid mass spectrometer (Thermo Fisher Scientific) coupled to a Dionex UltiMate 3000 UPLC system. […]
Data analysis. Protein identification and quantification by MaxQuant (version 1.5.3.8) based database searching, using the integrated Andromeda search engine with FDR <1% at peptide and protein levels. […] For label-free protein quantification (LFQ), the MaxQuant LFQ algorithm was used to quantitate the MS signals, and the proteins' intensities were represented in LFQintesnit (Schaab et al. “Analysis of High Accuracy, Quantitative Proteomics Data in the MaxQB Database” Mol. Cell. Proteomics 2012, 11 (3), M111.014068). […]

T1 sequence (O14744 whole entry): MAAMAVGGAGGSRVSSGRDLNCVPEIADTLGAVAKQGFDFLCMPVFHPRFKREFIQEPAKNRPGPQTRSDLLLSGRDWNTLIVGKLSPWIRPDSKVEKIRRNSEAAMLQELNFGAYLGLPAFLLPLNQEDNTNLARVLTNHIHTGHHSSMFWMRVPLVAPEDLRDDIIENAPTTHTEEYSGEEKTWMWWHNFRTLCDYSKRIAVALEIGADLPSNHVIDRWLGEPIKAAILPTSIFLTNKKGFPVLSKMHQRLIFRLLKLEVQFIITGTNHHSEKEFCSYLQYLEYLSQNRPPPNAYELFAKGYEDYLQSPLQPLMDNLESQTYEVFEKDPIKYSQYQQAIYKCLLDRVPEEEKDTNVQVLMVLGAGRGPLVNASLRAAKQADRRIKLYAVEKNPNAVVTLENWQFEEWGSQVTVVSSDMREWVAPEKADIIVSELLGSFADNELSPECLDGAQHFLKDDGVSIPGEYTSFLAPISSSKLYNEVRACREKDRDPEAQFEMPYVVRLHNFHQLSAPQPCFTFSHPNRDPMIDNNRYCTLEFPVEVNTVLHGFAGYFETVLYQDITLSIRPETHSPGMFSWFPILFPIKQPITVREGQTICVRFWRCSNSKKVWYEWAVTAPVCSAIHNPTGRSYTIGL

CNCCN1CCC(c2cc(CN(C)C(=O)c3cccc(Oc4ccc(OCC(=O)N5CCC(CN6CCC(CN7CCN(CC(=O)N[C@H](C(=O)N8C[C@H](O)C[C@H]8C(=O)N[C@@H](C)c8ccc(-c9scnc9C)cc8)C(C)(C)C)CC7)CC6)CC5)cc4)c3)ccn2)CC1 [Compound 3b, (2S,4R)-1-((S)-3,3-dimethyl-2-(2-(4-((1-((1-(2-(4-(3-(methyl((2-(1-(2-(methylamino)ethyl)piperidin-4-yl)pyridin-4-yl)methyl)carbamoyl)phenoxy)phenoxy)acetyl)piperidin-4-yl)methyl)piperidin-4-yl)methyl)piperazin-1-yl)acetamido)butanoyl)-4-hydroxy-N—((S)-1-(4-(4-methylthiazol-5-yl)phenyl)ethyl)pyrrolidine-2-carboxamide]
PRMT5 protein level in proteomics: not significantly changed
